Like-named read-outs stand apart in the source and are kept apart here.
Experiments:
[1] = Triple transgenic (3xTg) mouse time course PK/PD, oral dose, indirect response model; format: in vivo; conditions: female, 3xTg (triple transgenic), plasma
Description: (§1) Figure 8 Analysis of the PK/PD relationship for BMS-869780 in rats and mice. Rats were dosed orally with BMS-869780 at 10 mg/kg, and triple transgenic mice were orally dosed at 30 mg/kg and 100 mg/kg. Additional groups of rats and mice were dosed with vehicle alone. Brain and plasma were harvested at 3, 5, 8, 16, and 24 hours after dosing for determination of brain Aβ1-42 and plasma BMS-869780 concentration. Group sizes were 5 rats or 4 mice. Whiskers represent standard error. […] The data were fit to a one-compartment PK model and the predicted plasma BMS-869780 concentrations are shown for mouse (solid lines) and rat (broken line). […] The data were fitted using the indirect pharmacodynamic response model and predicted values are shown (solid lines). (c) Brain Aβ1-42 levels were determined for the rats dosed with BMS-869780 at 10 mg/kg (▼) or vehicle alone (●). The data were fitted using the indirect pharmacodynamic response model and predicted values are shown (dashed line). (d) Brain Aβ1-40 levels determined in the same rats as illustrated in (c).
(§2) All experimental procedures with animals followed National Institutes of Health guidelines and were authorized by and in compliance with policies of the Bristol-Myers Squibb Animal Use and Care Committee. Mice and rats were housed with a 6:00 AM to 6:00 PM light/dark cycle and allowed free access to food and water. For 3xTg mice, BMS-869780 was dosed in three-month-old females by oral gavage at 6 mL/kg in vehicle consisting of 84% polyethylene glycol average molecular weight of 400 (PEG-400), 15% EtOH, and 1% Tween-80 (w/w/w). The compound was dissolved in EtOH and then diluted with PEG-400 and Tween, after which the vial was sealed, vortexed, and sonicated at 56°C for 1 hour. Animals were euthanized by asphyxiation in CO2. Blood was collected by cardiac puncture and placed into ethylene-diaminetetraacetic acid microtainer tubes for the preparation of plasma. The cerebellum was collected for the determination of compound concentration, and the remaining brain was separated into left and right halves before freezing in liquid nitrogen. For the rat time course study, 8- to 12-week-old female Sprague-Dawley rats were obtained from Charles River Laboratories (Wilmington, MA), BMS-869780 was dosed orally at 4 mL/kg, and brain and plasma samples were collected as described for the 3xTg mice. For the four day repeat dose rat study, BMS-869780 was given by oral gavage in vehicle consisting of PEG-400, PEG-200, D-α-tocopheryl polyethylene glycol succinate, Solutol HS 15, in the ratio 80 : 10 : 5 : 5 (w/w/w/w). Methods for the pharmacokinetics studies in rat, dog, and monkey are described below.
(§3) The data generated in the mouse and rat time course experiments were analyzed sequentially by nonlinear regression (WinNonlin Pharsight Corporation, Mountain View, CA). The pharmacokinetic data were best described by a 1-compartment linear model with first-order absorption and elimination. Subsequently, the pharmacodynamic parameters were estimated from the BMS-869780 plasma concentrations and the observed reductions of brain Aβ1-42 or Aβ1-40 by fitting to the equation for inhibition of synthesis. The goodness-of-fit was determined by visual inspection, Akaike Information Criterion, Schwartz Criterion, examination of the residuals and the coefficient of variation of the parameter estimates.

brain Aβ1-42 = experiment: as above; format: in vivo; conditions: for IC50: po
Description: as §1, §2, §3

[2] = Mouse 30 mg/kg PO solution (observed 0–24 hours)
[3] = Mouse 100 mg/kg PO solution (observed 0–24 hours)

COc1cc(Nc2nc3n(n2)CCCC[C@H]3c2ccc(F)cc2)ccc1-n1cnc(Cl)c1 [BMS-869780]
k el ([1]; oral, mouse, 1-compartment PK model): 7.78e-05 s⁻¹
AUC(0-t) [1, 2]: 45.9 µM·h
AUC(0-t) [1, 3]: 102 µM·h
Brain Aβ ABEC 24 hr Aβ1-42 (brain Aβ1-42; [2]): 30.9%
Brain Aβ ABEC 24 hr Aβ1-42 (brain Aβ1-42; [3]): 55.1%
V/F (brain Aβ1-42; mouse): 1.94 L/kg
Ka1 (30 mg/kg) (brain Aβ1-42; mouse, 30 mg/kg oral): 0.11 h⁻¹
Ka2 (100 mg/kg) (brain Aβ1-42; mouse, 100 mg/kg oral): 0.046 h⁻¹
K in (brain Aβ1-42; mouse, calculated): 72 %/h
K OUT (brain Aβ1-42; mouse, rate constant for degradation of Aβ): 0.72 h⁻¹
IC50 (brain Aβ1-42; mouse, PD model, read-out: IC50 (plasma concentration required for 50% inhibition of Aβ production)): 3.98 µM
IC50 (brain Aβ1-42; mouse, read-out: in vivo plasma IC50 for brain Aβ1-42): 4 µM
